Results reported in patent US12240840B2, “Amide-substituted heterocyclic compounds for the treatment of conditions related to the modulation of IL-12, IL-23 and/or IFN-alpha” (BRISTOL-MYERS SQUIBB COMPANY, priority 2018, dated 2025).

Each molecule was assayed on IFNα-induced pSTAT5 (pY694) in CD3 positive cells of human whole blood (assay: IFNα-Induced STAT Phosphorylation in Human Whole Blood). Conditions: 1 h compound incubation, 1000 U/mL recombinant human IFNα A/D for 15 min, pSTAT5 in CD3 positive population, read-out: Human WB IFNα-Induced Stat Phosph. (IC50).
Type: cell-based
Outline: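 Read-out is median fluorescence intensity of pSTAT5 (pY694) in the CD3-positive gate, by flow cytometry after fix/lyse and permeabilization. Before that, whole human blood anticoagulated with EDTA or ACD-A received compound for an hour and 1000 U/mL IFNα A/D for 15 min.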

SMILES | IC50
[2H]C([2H])([2H])NC(=O)c1cnc(NC(=O)C2CC2)cc1Nc1cccc(-c2ccn(CCNC(=O)COC)n2)c1OC [Example 472] | 290 nM

Same assay, conditions: Homo sapiens, 1 h compound incubation, 1000 U/mL recombinant human IFNα A/D for 15 min, pSTAT5 in CD3 positive population, read-out: Human WB IFNα-Induced Stat Phosph. (IC50)

SMILES | IC50
[2H]C([2H])([2H])NC(=O)c1nnc(NC(=O)C2CC2)cc1Nc1cccc(-c2cc(C(=O)NCC34CCN(CC3)CC4)n(C)n2)c1OC [Example 504] | > 10000 nM
[2H]C([2H])([2H])NC(=O)c1nnc(NC(=O)C2CC2)cc1Nc1cccc(-c2ncc(C(=O)N3C[C@@H](C)O[C@@H](C)C3)s2)c1OC [Example 275] | 150 nM
[2H]C([2H])([2H])NC(=O)c1nnc(NC(=O)C2CC2)cc1Nc1cc(F)cc(-c2cc(C(=O)N(C)C(C)C)n(C)n2)c1OC [Example 506] | 250 nM
[2H]C([2H])([2H])NC(=O)c1nnc(NC(=O)C2CC2)cc1Nc1cccc(-c2noc(CNS(C)(=O)=O)n2)c1OC [Example 32] | 80 nM
[2H]C([2H])([2H])NC(=O)c1nnc(NC(=O)C2CC2)cc1Nc1cccc(-c2cc(C(=O)NCC)n(C)n2)c1OC [Example 457] | 770 nM
CCS(=O)(=O)N1CCN(C(=O)c2cnc(-c3cccc(Nc4cc(NC(=O)C5CC5)nnc4C(N)=O)c3OC)s2)CC1 [Example 402] | 40 nM
[2H]C([2H])([2H])NC(=O)c1nnc(NC(=O)C2CC2)cc1Nc1cccc(-c2cc(C(=O)N3CCCC3)n(C)n2)c1OC [Example 482] | 150 nM
[2H]C([2H])([2H])NC(=O)c1cnc(NC(=O)C2CC2)cc1Nc1cccc(-c2nc(CN3CCCC3)no2)c1OC [Example 215] | 150 nM
COc1c(Nc2cc(NC(=O)C3CC3)nnc2C(N)=O)cccc1-c1noc(CC(=O)N2CCOCC2)n1 [Example 36] | 30 nM
[2H]C([2H])([2H])NC(=O)c1nnc(NC(=O)C2CC2)cc1Nc1cccc(-c2ncc(C(=O)N3CCC3)s2)c1OC [Example 313] | 70 nM
[2H]C([2H])([2H])NC(=O)c1cnc(NC(=O)C2CC2)cc1Nc1cccc(-c2cnn(CCNC(=O)OC(C)(C)C)n2)c1OC [Example 430] | > 10000 nM
COCC(=O)NCCn1ncc(-c2cccc(Nc3cc(NC(=O)C4CC4)ncc3C(N)=O)c2OC)n1 [Example 445] | 150 nM
[2H]C([2H])([2H])NC(=O)c1cnc(Nc2ccc(OC)nn2)cc1Nc1cc(F)cc(-c2cnn(C)n2)c1OC [Example 452] | 150 nM
[2H]C([2H])([2H])NC(=O)c1nnc(NC(=O)C2CC2)cc1Nc1cccc(-c2nc([C@H](N)CO)no2)c1OC [Example 221] | 160 nM
[2H]C([2H])([2H])NC(=O)c1nnc(NC(=O)C2CC2)cc1Nc1cccc(-c2nc(C)c(C(=O)N(C)C)s2)c1OC [Example 367] | 60 nM
[2H]C([2H])([2H])NC(=O)c1cnc(NC(=O)C2CC2)cc1Nc1cccc(-c2cnn(CCN)n2)c1OC [Example 442] | 80 nM
CCN(CC)C1CCC(NC(=O)c2cnc(-c3cccc(Nc4cc(NC(=O)C5CC5)nnc4C(N)=O)c3OC)s2)CC1 (stereo not shown) [Example 397] | 40 nM
[2H]C([2H])([2H])NC(=O)c1nnc(NC(=O)C2CC2)cc1Nc1cccc(-c2ccn(CCN)n2)c1OC [Example 465] | 130 nM
[2H]C([2H])([2H])NC(=O)c1nnc(NC(=O)C2CC2)cc1Nc1cccc(-c2nc(CN3CCN(C(=O)C=C)CC3)no2)c1OC [Example 129] | 260 nM

SMILES | IC50
[2H]C([2H])([2H])NC(=O)c1nnc(NC(=O)C2CC2)cc1Nc1cccc(-c2nc(CNC(=O)CC#N)no2)c1OC [Example 148] | 1820 nM
[2H]C([2H])([2H])NC(=O)c1nnc(NC(=O)C2CC2)cc1Nc1cccc(-c2noc(C(=O)NC3CCC(N(C)C)CC3)n2)c1OC (stereo not shown) [Example 24] | 240 nM
COc1c(Nc2cc(NC(=O)C3CC3)nnc2C(N)=O)cccc1-c1noc([C@H](C)NS(C)(=O)=O)n1 [Example 46] | 140 nM
[2H]C([2H])([2H])NC(=O)c1cnc(NC(=O)C2CC2)cc1Nc1cccc(-c2noc(COC(C)C)n2)c1OC [Example 89] | 30 nM
COc1c(Nc2cc(NC(=O)C3CC3)nnc2C(N)=O)cccc1-c1noc(CN(C)S(=O)(=O)C(C)C)n1 [Example 58] | 11 nM
[2H]C([2H])([2H])NC(=O)c1nnc(NC(=O)C2CC2)cc1Nc1cccc(-c2noc([C@@H](C)O)n2)c1OC [Example 85] | 240 nM
[2H]C([2H])([2H])NC(=O)c1nnc(NC(=O)C2CC2)cc1Nc1cccc(-c2ncc(C(C)(C)O)s2)c1OC [Example 267] | 150 nM
COc1c(Nc2cc(NC(=O)C3CC3)nnc2C(N)=O)cccc1-c1noc(CNS(C)(=O)=O)n1 [Example 38] | 30 nM
COc1c(Nc2cc(N)nnc2C(N)=O)cccc1-c1noc(CN2CCOCC2)n1 [Example 107] | 820 nM
[2H]C([2H])([2H])NC(=O)c1nnc(NC(=O)C2CC2)cc1Nc1cccc(-c2nc(CN3CC4CN(C(=O)OC(C)(C)C)CC4C3)no2)c1OC (stereo not shown) [Example 231] | 1750 nM
[2H]C([2H])([2H])NC(=O)c1nnc(NC(=O)C2CC2)cc1Nc1cccc(-c2ncc(C(=O)N3CCC(N(C)C)CC3)s2)c1OC [Example 315] | 22 nM
[2H]C([2H])([2H])NC(=O)c1nnc(NC(=O)C2CC2)cc1Nc1cc(F)cc(-c2nc(CN3CCOCC3)no2)c1OC [Example 230] | 510 nM
[2H]C([2H])([2H])NC(=O)c1cnc(NC(=O)C2CC2)cc1Nc1cccc(-c2noc(CCOC)n2)c1OC [Example 90] | 60 nM
[2H]C([2H])([2H])NC(=O)c1nnc(NC(=O)C2CC2)cc1Nc1cccc(-c2noc(CN3CCCC3=O)n2)c1OC [Example 79] | 160 nM
[2H]C([2H])([2H])NC(=O)c1nnc(NC(=O)C2CC2)cc1Nc1cccc(-c2cc(C(=O)N3CNCC(=O)C3)n(C)n2)c1OC [Example 532] | 470 nM
[2H]C([2H])([2H])NC(=O)c1cnc(NC(=O)CC)cc1Nc1cccc(-c2noc(COC)n2)c1OC [Example 88] | 230 nM
COc1c(Nc2cc(NC(=O)C3CC3)nnc2C(N)=O)cccc1-c1ncc(CC(=O)N2CCOCC2)s1 [Example 244] | 120 nM
COc1c(Nc2cc(NC(=O)C3CC3)ncc2C(N)=O)cccc1-c1nc(CN2CCOCC2)no1 [Example 576, 6-(cyclopropanecarboxamido)-4-((2-methoxy-3-(3-(morpholinomethyl)-1,2,4-oxadiazol-5-yl)phenyl)amino)nicotinamide] | 13 nM
[2H]C([2H])([2H])NC(=O)c1nnc(NC(=O)C2CC2)cc1Nc1cccc(-c2ncc(C(=O)NCCOC)s2)c1OC [Example 271] | 90 nM

SMILES | IC50
[2H]C([2H])([2H])NC(=O)c1nnc(NC(=O)C2CC2)cc1Nc1cccc(-c2ncc(C(=O)NCCCN(C)C)s2)c1OC [Example 317] | 30 nM
[2H]C([2H])([2H])NC(=O)c1nnc(NC(=O)C2CC2)cc1Nc1cc(F)cc(-c2cc(C(=O)N3CC4CN(C)CC4C3)n(C)n2)c1OC (stereo not shown) [Example 496] | 250 nM
[2H]C([2H])([2H])NC(=O)c1nnc(NC(=O)C2CC2)cc1Nc1cccc(-c2cnn(CCNC(=O)CC#N)c2)c1OC [Example 559] | 830 nM
[2H]C([2H])([2H])NC(=O)c1nnc(Nc2cnc(OC)cn2)cc1Nc1cccc(-c2csc(C(=O)N3CCOCC3)n2)c1OC [Example 564] | > 10000 nM
[2H]C([2H])([2H])NC(=O)c1nnc(NC(=O)C2CC2)cc1Nc1cccc(-c2noc(CN3CCCS3(=O)=O)n2)c1OC [Example 76] | 30 nM
[2H]C([2H])([2H])NC(=O)c1nnc(NC(=O)C2CC2)cc1Nc1cccc(-c2nc(CNC(=O)CN3CCOCC3)no2)c1OC [Example 159] | 1080 nM
[2H]C([2H])([2H])NC(=O)c1nnc(NC(=O)C2CC2)cc1Nc1cccc(-c2noc(CN3CCC(O)C3)n2)c1OC (stereo not shown) [Example 82] | 70 nM
[2H]C([2H])([2H])NC(=O)c1nnc(NC(=O)C2CC2)cc1Nc1cccc(-c2nc(C3(NC(=O)CC#N)CC3)no2)c1OC [Example 151] | 1550 nM
[2H]C([2H])([2H])NC(=O)c1nnc(NC(=O)C2CC2)cc1Nc1cccc(-c2ncc(C(=O)NCC34CCN(CC3)CC4)s2)c1OC [Example 287] | 1260 nM
[2H]C([2H])([2H])NC(=O)c1nnc(NC(=O)C2CC2)cc1Nc1cccc(-c2nc(CN3CCN(S(C)(=O)=O)CC3=O)no2)c1OC [Example 141] | 240 nM
[2H]C([2H])([2H])NC(=O)c1nnc(NC(=O)C2CC2)cc1Nc1cccc(-c2nc(-c3ccccc3)no2)c1OC [Example 123] | > 10000 nM
[2H]C([2H])([2H])NC(=O)c1nnc(NC(=O)C2CC2)cc1Nc1cccc(-c2ncc(COCC)s2)c1OC [Example 394] | 420 nM
[2H]C([2H])([2H])NC(=O)c1nnc(NC(=O)C2CC2)cc1Nc1cccc(-c2cc(C(=O)N(C)CCOC)n(C)n2)c1OC [Example 481] | 390 nM
[2H]C([2H])([2H])NC(=O)c1cnc(NC(=O)C2CC2)cc1Nc1cccc(-c2cc(C(=O)N3CCS(=O)(=O)CC3)n(C)n2)c1OC [Example 488] | 530 nM
[2H]C([2H])([2H])NC(=O)c1nnc(NC(=O)C2CC2)cc1Nc1cccc(-c2nc(CN3CCN(C)CC3)no2)c1OC [Example 180] | 200 nM
[2H]C([2H])([2H])NC(=O)c1nnc(NC(=O)C2CC2)cc1Nc1cccc(-c2nc(CN3CCN(S(C)(=O)=O)CC3)no2)c1OC [Example 128] | 30 nM
[2H]C([2H])([2H])NC(=O)c1nnc(NC(=O)C2CC2)cc1Nc1cccc(-c2ncc(CC(=O)N(C)C)o2)c1OC [Example 410, 6-(cyclopropanecarboxamido)-4-((3-(5-(2-(dimethylamino)-2-oxoethyl)oxazol-2-yl)-2-methoxyphenyl)amino)-N-(methyl-d3)pyridazine-3-carboxamide] | 260 nM
[2H]C([2H])([2H])NC(=O)c1nnc(NC(=O)C2CC2)cc1Nc1cccc(-c2cc(C(=O)NCCN(C)C)n(C)n2)c1OC [Example 536] | 650 nM
COc1c(Nc2cc(NC(=O)C3CC3)nnc2C(N)=O)cccc1-c1ncc(C(=O)NCc2cccc(Cl)c2)o1 [Example 421] | 290 nM
